Test results from the supplement of paper PMC10307832.

Columns and labels:
Experiment in all cases: relative viability (nuclei count vs DMSO), 5 days (fraction); higher = more cells survive
AZ3146 + Dasatinib = compound: CN1CCC(CC1)OC2=CC(=C(C=C2)NC3=NC=C4C(=N3)N(C(=O)N4C)C5CCCC5)OC [AZ3146] + Cc1nc(Nc2ncc(C(=O)Nc3c(C)cccc3Cl)s2)cc(N2CCN(CCO)CC2)n1 [Dasatinib] (partner 0.075 µM)
Method in brief: (§1)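 Relative viability was taken as the ratio of nuclei in treated wells to nuclei in vehicle wells. Lung cancer cell lines in 1536-well plates received compounds by pin tool one day after seeding, either one drug alone or a fixed anchor-drug dose plus five library-drug doses (not always all listed) in √10 steps. Nuclei were counted on 4× images after 5 days of treatment, and values are medians of duplicate plates.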

GSK-J4 + Navitoclax = compound: CCOC(=O)CCNc1cc(N2CCc3ccccc3CC2)nc(-c2ccccn2)n1 [GSK-J4] + CC1(C)CCC(c2ccc(Cl)cc2)=C(CN2CCN(c3ccc(C(=O)NS(=O)(=O)c4ccc(N[C@H](CCN5CCOCC5)CSc5ccccc5)c(S(=O)(=O)C(F)(F)F)c4)cc3)CC2)C1 [Navitoclax] (partner 0.5 µM)
Method in brief: as §1

GSK-J4 + Lapatinib = compound: CCOC(=O)CCNc1cc(N2CCc3ccccc3CC2)nc(-c2ccccn2)n1 [GSK-J4] + CS(=O)(=O)CCNCc1ccc(-c2ccc3ncnc(Nc4ccc(OCc5cccc(F)c5)c(Cl)c4)c3c2)o1 [Lapatinib] (partner 2 µM)
Method in brief: as §1

AZ3146 + Luminespib = compound: CN1CCC(CC1)OC2=CC(=C(C=C2)NC3=NC=C4C(=N3)N(C(=O)N4C)C5CCCC5)OC [AZ3146] + CCNC(=O)c1noc(-c2cc(C(C)C)c(O)cc2O)c1-c1ccc(CN2CCOCC2)cc1 [Luminespib] (partner 0.01 µM)
Method in brief: as §1

Cell Line	relative viability (AZ3146 + Dasatinib; first compound 0.08 µM)	relative viability (AZ3146 + Dasatinib; first compound 0.253 µM)	relative viability (AZ3146 + Dasatinib; first compound 0.8 µM)	relative viability (AZ3146 + Dasatinib; first compound 2.53 µM)	relative viability (AZ3146 + Dasatinib; first compound 8 µM)	relative viability (GSK-J4 + Navitoclax; first compound 0.5 µM)	relative viability (GSK-J4 + Navitoclax; first compound 1.581 µM)	relative viability (GSK-J4 + Navitoclax; first compound 5 µM)	relative viability (GSK-J4 + Navitoclax; first compound 15.81 µM)	relative viability (GSK-J4 + Navitoclax; first compound 50 µM)	relative viability (GSK-J4 + Lapatinib; first compound 0.5 µM)	relative viability (GSK-J4 + Lapatinib; first compound 1.581 µM)	relative viability (GSK-J4 + Lapatinib; first compound 5 µM)	relative viability (GSK-J4 + Lapatinib; first compound 15.81 µM)	relative viability (GSK-J4 + Lapatinib; first compound 50 µM)	relative viability (AZ3146 + Luminespib; first compound 0.08 µM)	relative viability (AZ3146 + Luminespib; first compound 0.253 µM)	relative viability (AZ3146 + Luminespib; first compound 0.8 µM)	relative viability (AZ3146 + Luminespib; first compound 2.53 µM)	relative viability (AZ3146 + Luminespib; first compound 8 µM)
NCI-H2009	0.363	0.315	0.284	0.241	0.184	1.14	1.12	0.951	1.14	0.882	0.828	0.144	0.56	0.971	0.739	0.996	1.06	0.973	1.06	0.999
COR-L 105	0.394	0.261	0.238	0.288	0.191	0.692	0.551	0.647	0.88	0.679	0.398	0.317	0.35	0.319	0.35	0.776	0.8	0.815	0.824	0.678
NCI-H1623	0.482	0.455	0.498	0.601	0.556											0.486	0.591	0.612	0.604	0.556
HCC-827	0.381	0.345	0.409	0.333	0.218	1.02	0.991	1.06	1	0.994	0.197	0.229	0.207	0.212	0.16	0.62	0.616	0.574	0.609	0.598
EMC-BAC-2	0.273	0.366	0.38	0.372	0.354	1.17	1.07	1.24	1.04	1.13	0.925	0.928	0.802	0.824	0.806	1.13	1.16	1.17	1.31	1.22
NCI-H1703						0.944	0.963	0.776	1.08	1.25	0.937	0.912	0.84	1.11	0.695					
NCI-H2170	0.497	0.455	0.598	0.61	0.491	0.585	0.547	0.678	0.44	0.48	0.311	0.247	0.265	0.261	0.22	0.703	0.827	0.755	0.576	0.616
NCI-H1755	0.492	0.425	0.424	0.441	0.408	0.978	0.888	0.975	0.955	0.96	0.96	0.905	0.673	0.923	0.917	0.415	0.365	0.537	0.966	0.696
ChaGo-K-1	0.614	0.554	0.512	0.6	0.45	1.09		1.02	1.03	0.895						0.651	0.528	0.618	0.816	0.588
